# Source: US9034359B2, “Composition comprising biodegradable hydrating ceramics for controlled drug delivery” (Lidds AB, priority 2003, dated 2015)
# Experiment: Dog study: plasma concentration of 2-hydroxyflutamide after implant in prostate tissue
# Assay type: in vivo
# Conditions: 30, 60 or 120 mg in calcium sulphate-water implant in prostate tissue
# Procedure: Composition according to example 1, composition 2, with three different 2-hydroxyflutamide (HT) concentrations, was tested in a dog study. The concentration profile of HT in prostate tissue in male dogs after local administration of the composition was investigated at different time points. Also a reference implant without HT was implanted in one dog.
# Three male dogs are given 30, 60 or 120 mg of 2-hydroxy-flutamide by local implant delivery system in the prostate tissue; the total implantation time was 3 weeks.
# The implant drug delivery system was inserted locally into the prostate tissue through sterile needles during rectal ultrasound guidance. The animals were under anesthesia during the insertion procedure.
# Blood samples were taken every day for the first week and then once a week for the remaining weeks. Plasma samples were collected in tubes with EDTA and the plasma were transferred to microtubes of 2 ml, (sterile kryotubes from Sarstedt; No. 694.005).
# The quantification of the parent drug, 2-hydroxyflutamide, in the plasma and tissue samples, was done by HPLC-MS analysis.
smiles,measurement,value
CC(C)(O)C(=O)Nc1ccc([N+](=O)[O-])c(C(F)(F)F)c1 [2-hydroxyflutamide],extended plasma profile duration,3 to 6 days
